# Assay results reported in patent EP0219144A1, “Diphenyl ether herbicides” (SHELL INTERNATIONALE RESEARCH MAATSCHAPPIJ B.V., priority 1985, dated 1987).
# Test: physchem
# Format: physicochemical
# Settings: for half-life: 25% 1,4-dioxan
# Protocol: The hydrolytic stability of the compounds of this invention was compared with representative examples of other phenoxy phthalides specifically described in Applicants' earlier EPA 145078. This property was evaluated by determining the half-life (in hours) at pH7.0 and 9.0 in 25% 1,4-dioxan at 39°C. The results of these tests are set out in Table I below, in which the test compounds are identified by reference to the substituent A in the following formula: [drawing 12] 'N.D.D.' = No detectable decomposition over a 200 hour period
SMILES,Half-Life pH 7.0 (pH 7),Half-Life pH 9.0 (pH 9),half-life (pH 7) [h],half-life (pH 9) [h]
"CCC1(CC)OC(=O)c2ccc(Oc3ccc(C(F)(F)F)cc3Cl)cc21 [C(C2H5)2, H, 5-(2'-Chloro-4'-trifluoromethylphenoxy)-3,3-diethylphthalide]",NDD,NDD,,
"CC1(C)OC(=O)c2ccc(Oc3c(Cl)cc(C(F)(F)F)cc3Cl)cc21 [C(CH3)2, Cl]",NDD,NDD,,
"CC1(C)OC(=O)c2ccc(Oc3ccc(C(F)(F)F)cc3Cl)cc21 [C(CH3)2, H, 5-(2'-Chloro-4'-trifluoromethylphenoxy)-3,3-dimethyl phthalide]",,,4920,1900
"CCC1(C)OC(=O)c2ccc(Oc3ccc(C(F)(F)F)cc3Cl)cc21 (centres unmarked) [C(CH3)(C2H5), H]",NDD,NDD,,
"O=C1OCc2cc(Oc3ccc(C(F)(F)F)cc3Cl)ccc21 [CH2, H, reference compound]",,,56.5,14.5
"CC1OC(=O)c2ccc(Oc3ccc(C(F)(F)F)cc3Cl)cc21 (centres unmarked) [CH(CH3), H, (2'-chloro-9'-trifluoro-methylphenoxy)-3-methyl phthalide, reference compound]",,,1060,11
"COC1OC(=O)c2ccc(Oc3ccc(C(F)(F)F)cc3Cl)cc21 (centres unmarked) [CH(OCH3), H, reference compound]",,,17.2,1.2
